Laboratory results published in article PMC7770057 (Journal of medicinal chemistry, 2020).

Experiments:
MEK1/2 = settings: HT-29 cells, 0.3, 1 and 3 μM; previous study; cited from earlier work
SK-MEL-28 cells = assay: Antiproliferation; type: cell-based; settings: Homo sapiens, SK-MEL-28, 72 h, read-out: SK-MEL-28 GI50

| SMILES | MEK1/2 degradation (Western blot, words) (MEK1/2) | GI50 (SK-MEL-28 cells) [nM] |
| --- | --- | --- |
| Cc1ncsc1-c1ccc(CNC(=O)[C@@H]2C[C@@H](O)CN2C(=O)[C@@H](NC(=O)CCCCCCCCCCNCCCONC(=O)c2ccc(F)c(F)c2Nc2ccc(I)cc2F)C(C)(C)C)cc1 [Compound 14, (2S,4R)-1-((S)-20-(tert-Butyl)-1-(3,4-difluoro-2-((2-fluoro-4-iodophenyl)amino)phenyl)-1,18-dioxo-3-oxa-2,7,19-triazahenicosan-21-oyl)-4-hydroxy-N-(4-(4-methylthiazol-5-yl)benzyl)pyrrolidine-2-carboxamide] | significantly degrade MEK1/2 protein levels |  |
| CCCS(=O)(=O)Nc1ccc(F)c(C(=O)c2c[nH]c3ncc(-c4ccc(Cl)cc4)cc23)c1F [PLX4032] |  | ~100 |
